Measurements: US9695155B2, “Herbicidal substituted pyrimidinyloxy benzene compounds” (E. I. DU PONT DE NEMOURS AND COMPANY, priority 2013, dated 2017)

How the values were obtained:
giant foxtail [1] = test: Test A postemergence; format: in vivo, Setaria faberii; conditions: 0 to 100 scale, 0 no effect, 100 complete control
Summary of the method: (§1)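 Injury scores run from 0, no effect, to 100, complete control, judged by eye against untreated plants roughly 10 days after treatment. Chemicals carried a surfactant in a non-phytotoxic solvent and went onto loam–sand soil preemergence or onto one- to two-leaf seedlings postemergence.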

kochia [2] = test: Test A postemergence; format: in vivo, Kochia scoparia; conditions: 0 to 100 scale, 0 no effect, 100 complete control
Summary of the method: as §1

Italian ryegrass [3] = test: Test A postemergence; format: in vivo, Lolium multiflorum; conditions: 0 to 100 scale, 0 no effect, 100 complete control
Summary of the method: as §1

Italian ryegrass [4] = test: Test A preemergence; format: in vivo, Lolium multiflorum; conditions: for Plant response rating, Ryegrass, Italian: 31 g ai/ha, 0 to 100 scale where 0 is no effect and 100 is complete control, visual, approximately 10 days; for Ryegrass, Italian plant response rating (0 to 100 scale): 125 g ai/ha
Summary of the method: as §1

pigweed [5] = test: Test A postemergence; format: in vivo, Amaranthus retroflexus; conditions: 0 to 100 scale, 0 no effect, 100 complete control
Summary of the method: as §1

ragweed [6] = test: Test A postemergence; format: in vivo, Ambrosia elatior; conditions: 0 to 100 scale, 0 no effect, 100 complete control
Summary of the method: as §1

kochia [7] = test: Test A preemergence; format: in vivo, Kochia scoparia; conditions: for Plant response rating, Kochia: 31 g ai/ha, 0 to 100 scale where 0 is no effect and 100 is complete control, visual, approximately 10 days; for Kochia plant response rating (0 to 100 scale): 125 g ai/ha
Summary of the method: as §1

giant foxtail [8] = test: Test A preemergence; format: in vivo, Setaria faberii; conditions: for Plant response rating, Foxtail, Giant: 31 g ai/ha, 0 to 100 scale where 0 is no effect and 100 is complete control, visual, approximately 10 days; for Foxtail, Giant plant response rating (0 to 100 scale): 125 g ai/ha
Summary of the method: as §1

rice = test: Test B flooded paddy test; format: in vivo, Oryza sativa; conditions: Flood, 250 g ai/ha; 0 to 100 scale where 0 is no effect and 100 is complete control
Summary of the method: (§2)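 Post-emergence paddy-water application at the 2-leaf stage, with 3 cm flood kept for the whole test. Response was judged visually relative to controls after 13 to 15 greenhouse days, 0 indicating no effect and 100 complete control.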

corn = test: Test A postemergence; format: in vivo, Zea mays; conditions: 0 to 100 scale, 0 no effect, 100 complete control
Summary of the method: as §1

barnyardgrass [9] = test: Test B flooded paddy test; format: in vivo, Echinochloa crus-galli; conditions: Flood, 250 g ai/ha; 0 to 100 scale where 0 is no effect and 100 is complete control
Summary of the method: as §2

galium = test: Test A postemergence; format: in vivo, Galium aparine; conditions: 0 to 100 scale, 0 no effect, 100 complete control
Summary of the method: as §1

barnyardgrass [10] = test: Test A postemergence; format: in vivo, Echinochloa crus-galli; conditions: 0 to 100 scale, 0 no effect, 100 complete control
Summary of the method: as §1

Heteranthera limosa = test: Test B flooded paddy test; format: in vivo; conditions: Flood, 250 g ai/ha; 0 to 100 scale where 0 is no effect and 100 is complete control
Summary of the method: as §2

pigweed [11] = test: Test A preemergence; format: in vivo, Amaranthus retroflexus; conditions: for Plant response rating, Pigweed: 31 g ai/ha, 0 to 100 scale where 0 is no effect and 100 is complete control, visual, approximately 10 days; for Pigweed plant response rating (0 to 100 scale): 125 g ai/ha
Summary of the method: as §1

blackgrass = test: Test A postemergence; format: in vivo, Alopecurus myosuroides; conditions: 0 to 100 scale, 0 no effect, 100 complete control
Summary of the method: as §1

wheat = test: Test A postemergence; format: in vivo, Triticum aestivum; conditions: 0 to 100 scale, 0 no effect, 100 complete control
Summary of the method: as §1

barnyardgrass [12] = test: Test A preemergence; format: in vivo, Echinochloa crus-galli; conditions: for Plant response rating, Barnyardgrass: 31 g ai/ha, 0 to 100 scale where 0 is no effect and 100 is complete control, visual, approximately 10 days; for Barnyardgrass plant response rating (0 to 100 scale, 0 is no effect, 100 is complete control): 125 g ai/ha
Summary of the method: as §1

ragweed [13] = test: Test A preemergence; format: in vivo, Ambrosia elatior; conditions: for Plant response rating, Ragweed: 31 g ai/ha, 0 to 100 scale where 0 is no effect and 100 is complete control, visual, approximately 10 days; for Ragweed plant response rating (0 to 100 scale): 125 g ai/ha
Summary of the method: as §1

sedge, umbrella = test: Test B flooded paddy test; format: in vivo, Cyperus difformis; conditions: Flood, 250 g ai/ha; 0 to 100 scale where 0 is no effect and 100 is complete control
Summary of the method: as §2

Compound | Plant response rating, Foxtail, Giant (giant foxtail [1]; 31 g ai/ha) | Plant response rating, Foxtail, Giant (giant foxtail [1]; 125 g ai/ha) | Plant response rating, Kochia (kochia [2]; 31 g ai/ha) | Plant response rating, Kochia (kochia [2]; 125 g ai/ha) | Plant response rating, Ryegrass, Italian (Italian ryegrass [3]; 31 g ai/ha) | Plant response rating, Ryegrass, Italian (Italian ryegrass [3]; 125 g ai/ha) | Plant response rating, Ryegrass, Italian (Italian ryegrass [4]) | Ryegrass, Italian plant response rating (0 to 100 scale) (Italian ryegrass [4]) | Plant response rating, Pigweed (pigweed [5]; 31 g ai/ha) | Plant response rating, Pigweed (pigweed [5]; 125 g ai/ha) | Plant response rating, Ragweed (ragweed [6]; 31 g ai/ha) | Plant response rating, Ragweed (ragweed [6]; 125 g ai/ha) | Plant response rating, Kochia (kochia [7]) | Kochia plant response rating (0 to 100 scale) (kochia [7]) | Plant response rating, Foxtail, Giant (giant foxtail [8]) | Foxtail, Giant plant response rating (0 to 100 scale) (giant foxtail [8]) | Plant response rating, Rice (rice) | Plant response rating, Corn (corn; 31 g ai/ha) | Plant response rating, Corn (corn; 125 g ai/ha) | Plant response rating, Barnyardgrass (barnyardgrass [9]) | other results
Fc1cnc(Oc2ccccc2-n2cc(SC(F)(F)F)cn2)nc1 [Compound 247] | 0 | 10 | 20 | 40 | 0 | 0 | 0 | 0 | 10 | 20 | 0 | 0 | 0 | 60 | 0 | 100 | 0 | 0 | 20 | 0 | Plant response rating, Galium (galium; 31 g ai/ha): 10; Plant response rating, Galium (galium; 125 g ai/ha): 30; Plant response rating, Barnyardgrass (barnyardgrass [10]; 31 g ai/ha): 0; Plant response rating, Barnyardgrass (barnyardgrass [10]; 125 g ai/ha): 20; Plant response rating, Ducksalad (Heteranthera limosa): 65; Plant response rating, Pigweed (pigweed [11]): 0; Pigweed plant response rating (0 to 100 scale) (pigweed [11]): 80; Plant response rating, Blackgrass (blackgrass; 31 g ai/ha): 0; Plant response rating, Blackgrass (blackgrass; 125 g ai/ha): 40; Plant response rating, Wheat (wheat; 31 g ai/ha): 0; Plant response rating, Wheat (wheat; 125 g ai/ha): 20; Plant response rating, Barnyardgrass (barnyardgrass [12]): 0; Barnyardgrass plant response rating (0 to 100 scale, 0 is no effect, 100 is complete control) (barnyardgrass [12]): 70; Plant response rating, Ragweed (ragweed [13]): 0; Ragweed plant response rating (0 to 100 scale) (ragweed [13]): 0; Plant response rating, Sedge, Umbrella (sedge, umbrella): 50
FCc1cccc(Oc2ncc(F)cn2)c1-n1cc(Cl)cn1 [Compound 249] | 0 | 60 | 20 | 80 | 0 | 0 | 0 | 30 | 60 | 100 | 10 | 70 | 0 | 40 | 0 | 0 | 0 | 0 | 10 | 0 | Plant response rating, Galium (galium; 31 g ai/ha): 20; Plant response rating, Galium (galium; 125 g ai/ha): 30; Plant response rating, Barnyardgrass (barnyardgrass [10]; 31 g ai/ha): 0; Plant response rating, Barnyardgrass (barnyardgrass [10]; 125 g ai/ha): 60; Plant response rating, Ducksalad (Heteranthera limosa): 70; Plant response rating, Pigweed (pigweed [11]): 90; Pigweed plant response rating (0 to 100 scale) (pigweed [11]): 90; Plant response rating, Blackgrass (blackgrass; 31 g ai/ha): 60; Plant response rating, Blackgrass (blackgrass; 125 g ai/ha): 80; Plant response rating, Wheat (wheat; 31 g ai/ha): 0; Plant response rating, Wheat (wheat; 125 g ai/ha): 0; Plant response rating, Barnyardgrass (barnyardgrass [12]): 0; Barnyardgrass plant response rating (0 to 100 scale, 0 is no effect, 100 is complete control) (barnyardgrass [12]): 0; Plant response rating, Ragweed (ragweed [13]): 0; Ragweed plant response rating (0 to 100 scale) (ragweed [13]): 0; Plant response rating, Sedge, Umbrella (sedge, umbrella): 60
